This note sets out measurements from patent US20020155443A1, “Metal binding DNA interactive compounds” (priority 2000, published 2002).

One data set deals with Form I DNA. Briefly: Cleavage of Form I DNA under mildly alkaline conditions. As to conditions: mildly alkaline (pH 8.5) conditions. The format is biochemical. The text has this:
It is believed that the DNA damage due to 2.12 is insensitive to either the addition of radical scavengers or the exclusion of oxygen. Additionally, treatment of a methanolic solution of 2.12 with aqueous NaOH led to the production of the bis(enol ether) 2.13 as depicted in FIG. 4.

For data set [1], the system named is B16 murine melanoma cells. Briefly: Growth inhibition of B16 murine melanoma cells, MTT assay. The class given is cell-based. As to conditions: Mus musculus, B16, read-out: IC50, growth inhibition. On the procedure:
The growth inhibitory activities of bis(propargylic) sulfone crown ethers 2.47 and 2.48 against B16 murine melanoma cells were determined calorimetrically with an MTT assay conducted by the Institute for Drug Development at the Cancer Research and Therapy Center in San Antonio, Tex.
A general note: Formazan colour is commonly taken as a measure of viable cells.

Usually melting point stands for the temperature of the solid-liquid transition. By IC50 is commonly meant the concentration needed to halve the response being measured.

The structures appear in SMILES notation.

In turn, `O=S1(=O)CC#CCOc2ccccc2OCC#CC1` [Compound 2.10] yielded a melting point of 176.5 to 177.5 °C.
On to `O=S1(=O)CC#CCOCCOCCOCCOCC#CC1` [Compound 2.12], for which the “cleavage of Form I DNA” value in the data set with Form I DNA is listed as “dose-dependent cleavage”.
The compound `CCOC(=O)c1cccc(CS(=O)(=O)CC#CCO)c1` [Compound 3.3] yielded a melting point of 79.5 to 80.5 °C.
For the compound `C1#CCOCCOCCOCCOCCOCCOCC#C/C=C\1` [Compound 4.7], the IC50 in data set [1] was found to be 68 µM.
